Measured values from paper PMC1199608 (Cancer Cell International, 2005).
“Also recorded” adds a separate entry of the source. Like-named read-outs stand apart in the source and are kept apart here. No end group written: not given here.

Columns and labels:
Jurkat cells [1] = assay: Apoptosis by electron microscopy; assay type: cell-based; settings: 4-hr incubation, 62.5 μM Pep27anal2, 100 μM etoposide, 200–400 cells counted per group
Method: Jurkat cells were harvested and immediately fixed in phosphate-buffered glutaraldehyde solution (pH 7.2) for 2 hrs and then fixed in 1% buffered osmium tetroxide for 2 hrs at 4°C. After processing through a graded series of ethanol and propylene oxide, the cells were embedded in Epon. A semi-thin (1 μm) section was cut and stained with toluidine blue for the ultrastructural examination. Ultra-thin (60–90 nm) sections were also prepared from the Epon block above using an ultramicrotome (LKB-V, Sweden), stained with uranyl acetate and lead citrate, and examined under a Hitachi H-7600 electron microscope (Hitachi, Kyoto, Japan). Apoptosis detection was done by taking photographs (×1,000) of the entire field of each ultra-thin sectioned sample. The degree of apoptosis (apoptosis index) was defined as the number of apoptotic cells expressed as a percentage of the total cell count.

Jurkat cells [2] = assay: Apoptosis and membrane integrity by flow cytometry (annexin V-FITC / PI); assay type: cell-based; settings: 4 hr, 12.5 μM or 63 μM Pep27anal2, 12.5 μM mellitin, 100 μM etoposide
Method: Annexin V binding was assessed by flow cytometry, and cell staining was evaluated using FITC-labeled annexin V (green fluorescence), and propidium iodide (PI) ([…]) simultaneously. This test was able to discriminate between intact cells (FITC-/PI-), apoptotic cells (FITC+/PI-) and necrotic cells (FITC+/PI+) (Vermes et al., 1995). Jurkat cells (10^5/ml) were exposed to etoposide (100 μM), mellitin (12.5 μM) and Pep27anal2 (12.5 μM and 62.5 μM) for 4 hr. Cells were washed with PBS, resuspended in 400 μl of binding buffer (10 mM Hepes/NaOH, pH 7.4, 140 mM NaCl, 2.5.mM CaCl2), and incubated with 10 μl of annexin V-FITC (MedSystems Diagnostics, GmbH, […]) for 10 min at room temperature. After incubation, cells were washed with binding buffer and exposed to 1 μg of PI in a final volume of 400 μl. FITC and PI fluorescences were determined using a flow cytometer (Becton Dickinson, Franklin Lakes, FL, USA)
In the present study, Jurkat cells were treated with 100 μM of etoposide, 12.5 μM of mellitin or 12.5 μM or 63 μM of Pep27anal2 for 4 hr. Apoptosis and membrane integrity were then determined using annexin V and propidium iodide, respectively, as described in "Materials and methods". […] Dead cells appear first in the lower right quadrant (apoptosis), where death was due to the externalization of PS (detected with annexin V-FITC).

[3] = system: AML-2 acute myelogenous leukemia cell line; settings: MTT assay, from semilogarithmic dose-response curves, at least in duplicate
Method: (§1) OCI-AML-2 (AML-2) cell line was obtained from the Ontario Cancer Institute (Toronto, Canada), and Jurkart and HL-60 cell lines from the American Type Culture Collection (ATCC, USA). These three cell lines were cultured at 37°C in a 5% CO2 atmosphere using α-MEM medium (GibcoBRL, Gland Island, NY, USA) containing 10% heat-inactivated fetal bovine serum (FBS, Sigma, ST. Louis, MO, USA). MCF-7 and NIH/3T3 cell lines from ATCC and SNU-601 cell line from the Korean Cancer Cell Bank (Seoul, Korea) were cultured under the same conditions but using RPMI-1640 medium (GibcoBRL, Gland Island, NY, USA) containing 10% heat-inactivated FBS. Cells were maintained in suspension or as monolayer cultures, and subcultured.
(§2) The in vitro cytotoxicity of the Pep27 analogues produced was measured by MTT [3-(4,5-dimethylthiazol-2-yl)-2,5-diphenyl tetrazolium bromide, Sigma, ST. Louis, USA] assay, as described by. IC50 values were determined directly from semilogarithmic dose-response curves. Experiments were carried out at least in duplicate.
(§3) To evaluate the anticancer activities of the Pep27 analogues, different concentrations of these peptides were administered to various cancer cell lines, and cytotoxicities were then determined by MTT assay. In this study, we used both anchorage-dependent and independent cancer cell lines. These included AML-2 an acute myelogenous leukemia cell line, HL-60 an acute promyelocytic leukemia cell line, Jurkat a T cell leukemia cell line, SNU-601 a gastric cancer cell line and MCF-7 a breast cancer cell line.

[4] = system: HL-60 acute promyelocytic leukemia cell line; settings: MTT assay, from semilogarithmic dose-response curves, at least in duplicate
Method: as §1, §2, §3

[5] = system: Jurkat T cell leukemia cell line; settings: MTT assay, from semilogarithmic dose-response curves, at least in duplicate
Method: as §1, §2, §3

[6] = system: MCF-7 breast cancer cell line; settings: MTT assay, from semilogarithmic dose-response curves, at least in duplicate
Method: as §1, §2, §3

[7] = system: SNU-601 gastric cancer cell line; settings: MTT assay, from semilogarithmic dose-response curves, at least in duplicate
Method: as §1, §2, §3

human erythrocytes = settings: 4% human erythrocytes in PBS pH 7.0, 1 h at 37°C, absorbance 414 nm, 100% = 0.1% Triton-100
Method: Peptide hemolytic activities were measured as described by, by determining hemoglobin release by 4% suspensions of fresh human erythrocytes at 414 nm. Briefly, human erythrocyte cells were centrifuged and washed three times with phosphate-buffered saline (PBS: 35 mM phosphate buffer/0.15 M NaCl, pH 7.0). […] of human red blood cells suspended 8% (v/v) in PBS were the inoculated into 96-well plates. […] of the peptide solution, Pep27 or its analogues, was then added to each well. The plates were incubated for 1 h at 37°C, and centrifuged at 150 g for 5 min. […] aliquots of the supernatant obtained were transferred to flat-bottom 96-microtiter plates. Hemolysis was determined by measuring absorbance at 414 nm with an ELISA plate reader (Molecular Devices Emax, Sunnyvale, CA, USA). Hemolysis rates of 0% or 100% were determined as the same way with PBS and 0.1% Triton-100, respectively. Hemolysis percent was calculated using the following equation: % hemolysis = [(Abs414nm in the peptide solution - Abs414nm in PBS)/(Abs414nm in 0.1% Triton-100 - Abs414nm in PBS)] × 100.

Jurkat cells [8] = assay: Cytochrome c release from mitochondria to cytosol (Western blotting); assay type: cell-based; settings: Jurkat cells (5 × 10^5/ml), 62.5 μM, 4 h
Method: Cytochrome c immunoblotting was performed using a slight modification of a previously described method. Jurkat cells were collected by centrifugation at 200 g for 5 min at 4°C. The cells were then washed twice with ice-cold PBS, pH 7.4, and centrifuged at 200 g for 5 min. The cell pellet obtained was then resuspended in 600 μl of extraction buffer, containing 20 mM Hepes-KOH (pH 7.5), 10 mM KCl, 250 mM sucrose, 1 mM EGTA, 1 mM EDTA, 1.5 mM MgCl2, 1 mM dithiothreitol and 0.1 mM phenylmethylsulfonyl fluoride.
After incubation for 30 min on ice, the cells were homogenized (20 strokes), spun at 14,000 g for 15 min, supernatants were separated from the mitochondrial fraction, and both were stored at -70°C, until required for gel electrophoresis. The mitosol fraction was obtained by adding 0.1% SDS. […]
Cytochrome c is a well-characterized mitochondrial protein and is involved in cellular energy metabolism. […] After these incubations, cytochrome c in the cytosol fraction, obtained by 14,000 g centrifugation for 15 min, and in the mitosol, obtained by adding 0.1% SDS to the mitochondrial fraction, was determined by Western blotting.

| Compound | apoptosis (apoptotic cells by electron microscopy) (Jurkat cells [1]) | annexin V-FITC staining (apoptosis) and PI staining (membrane integrity) (Jurkat cells [2]) | IC50 [3] | IC50 [4] | IC50 [5] | IC50 [6] | IC50 [7] | % Hemolysis (human erythrocytes; 0.19 μM peptide) | % Hemolysis (human erythrocytes; 0.39 μM peptide) | % Hemolysis (human erythrocytes; 0.78 μM peptide) | % Hemolysis (human erythrocytes; 1.56 μM peptide) | % Hemolysis (human erythrocytes; 3.12 μM peptide) | % Hemolysis (human erythrocytes; 6.25 μM peptide) | % Hemolysis (human erythrocytes; 12.5 μM peptide) | cytochrome c release from mitochondria into the cytosol (Jurkat cells [8]) |
| --- | --- | --- | --- | --- | --- | --- | --- | --- | --- | --- | --- | --- | --- | --- | --- |
| COc1cc([C@@H]2c3cc4c(cc3[C@@H](O[C@@H]3O[C@@H]5CO[C@@H](C)O[C@H]5[C@H](O)[C@H]3O)[C@H]3COC(=O)[C@H]23)OCO4)cc(OC)c1O [Etoposide, etoposide, reference compound] | Apoptotic cells were more frequent than in the control group |  |  |  |  |  |  |  |  |  |  |  |  |  |  |
| CC[C@H](C)[C@H](NC(=O)CN)C(=O)NCC(=O)N[C@@H](C)C(=O)N[C@H](C(=O)N[C@@H](CC(C)C)C(=O)N[C@@H](CCCCN)C(=O)N[C@H](C(=O)N[C@@H](CC(C)C)C(=O)N[C@H](C(=O)N[C@H](C(=O)NCC(=O)N[C@@H](CC(C)C)C(=O)N1CCC[C@H]1C(=O)N[C@@H](C)C(=O)N[C@@H](CC(C)C)C(=O)N[C@H](C(=O)N[C@@H](CO)C(=O)N[C@@H](Cc1c[nH]c2ccccc12)C(=O)N[C@H](C(=O)N[C@@H](CCCCN)C(=O)N[C@@H](CCCNC(=N)N)C(=O)N[C@@H](CCCCN)C(=O)N[C@@H](CCCNC(=N)N)C(=O)N[C@@H](CCC(N)=O)C(=O)N[C@@H](CCC(N)=O)C(N)=O)[C@@H](C)CC)[C@@H](C)CC)[C@@H](C)O)[C@@H](C)O)C(C)C)C(C)C [Mellitin, reference compound] |  | increased the distribution of PI staining without an increase of annexin V-FITC staining |  |  |  |  |  |  |  |  |  |  |  |  |  |
| MRKEFHNVLSSGQLLADKRPARDYNRK-NH2 [Pep27, reference compound] |  |  | > 70 µM | > 70 µM | > 70 µM | > 70 µM | > 70 µM | 0% | 0% | 0% | 0% | 0% | 0% | 0% |  |
| MWKEFHNVLSSGQLLADKRWARWYNRW-NH2 [Pep27anal4] |  |  | 50 µM | 51 µM | 46 µM | 29 µM | 37 µM | 0% | 0% | 0% | 0% | 0% | 0% | 0% |  |
| MWKWFHNVLSSGQLLADKWWAWWYNWW-NH2 [Pep27anal5] |  |  | > 70 µM | > 70 µM | > 70 µM | > 70 µM | > 70 µM | 0% | 0% | 0% | 0% | 0% | 0% | 0% |  |
| MWKWFHNVLSWWWLLADKRPARDYNRK-NH2 [Pep27anal2] | Apoptotic cells were most frequent in this group; also recorded: induced more apoptosis than 100 μM of etoposide | caused a higher level of annexin V-FITC staining with a little increase of PI staining than etoposide |  |  |  |  |  |  |  |  |  |  |  |  | did not induce cytochrome c release |
